Some results are limits rather than exact numbers.

The source of these data is patent US20190070159A1, “NOVEL PHARMACEUTICAL USES” (TAKEDA PHARMACEUTICAL COMPANY LIMITED, priority 2015, published 2019).

Series [1] relates to gastric acid secretion. The series is described as follows: 24-hour gastroesophageal pH monitoring, phase 3 study in PPI-resistant EE patients. In kind it is in vivo, human. Here is the method:
(§1) This was a phase 3, randomized, double-blind, parallel-group, multicenter study to evaluate the dose-response relationships of the acid-inhibitory effect and efficacy of TAK-438 (20 mg and 40 mg) in patients with PPI-resistant EE of LA Classification Grades A to D.
(§2) A patient with PPI-resistant EE was defined as a patient who had EE of LA Classification Grades A to D endoscopically confirmed at the examination in the run-in period after receiving a regular or higher PPI dose for at least 8 weeks until immediately before the start of the run-in period. This study consisted of a 7- to 14-day run-in period and an 8-week treatment period. Subjects who entered the run-in period orally received 1 capsule of the PPI lansoprazole 30 mg once daily after breakfast for at least 7 days, but not more than 14 days. As a rule, subjects underwent endoscopic examination 2 days before the end of the run-in period, after receiving the study medication for the run-in period for at least 5 days. The acid-inhibitory effect of the study medication during the run-in period was evaluated by monitoring gastroesophageal pH for 24 hours, beginning from the day before the end of the run-in period. The subject was then randomized at a 1:1 ratio to receive either TAK-438 20 mg or 40 mg and entered the treatment period. Subjects orally received the assigned medications once daily after breakfast for 8 weeks from the day after the end of the run-in period.
Efficacy: The primary endpoint was the time course of gastroesophageal pH changes over 24 hours at steady state in the treatment period. The primary measure was gastric and esophageal pH 4 holding time ratios (HTRs). Other measures were gastric and esophageal pH 1, 2, 3, 5, 6, and 7 HTRs, mean gastric pH, and mean esophageal pH.

For series [2], the system named is PPI-resistant EE of LA Classification Grades A to D. Kind of series: EE healing rate after 8-week treatment, phase 3 study in PPI-resistant EE patients. Format: in vivo, human. How it is done:
as §1, §2
Subject eligibility for this study required that the subject had received a regular or higher dose of PPI for EE treatment for at least 8 weeks until immediately before the start of the run-in period. In addition, the subject had EE for which a regular or higher dose of PPI had not been effective, or more specifically, the subject had EE of LA Classification Grades A to D endoscopically confirmed at the examination in the run-in period.
The secondary endpoint was the EE healing rate after 8-week treatment with TAK-438.

Series [3] is described as follows: Safety and tolerability, phase 3 study in PPI-resistant EE patients. In kind it is in vivo, human. Particulars: subjects with PPI-resistant EE of LA Grades A to D, 20 mg or 40 mg for 8 weeks. Here is the method: as §1
as §2, with “Subjects orally received the assigned medications once daily after breakfast for 8 weeks from the day after the end of the run-in period.” left out

The subject of series [4] is GERD symptoms (heartburn and acid regurgitation). The series is described as follows: Clinical study in PPI partial responders (NERD and LA grade A EE), symptom diary. Format: in vivo, human. Conditions: TAK-438 20 mg QD or 40 mg QD for 4 weeks. Here is the method:
A study is held to evaluate TAK-438 (20 mg QD and 40 mg QD) in subjects who have a history of heartburn-predominant GERD despite an adequate course of PPI treatment and who are then confirmed to have a partial response to a 4-week treatment course with a PPI (esomeprazole 40 mg QD).
Subjects are eligible for participation in the study if they: • have a documented history of symptoms of both heartburn and acid regurgitation prior to entry into the study; • have a history of heartburn-predominant GERD despite an adequate course of PPI treatment; • continue to have symptoms of heartburn (with or without regurgitation) following 4 weeks treatment with a high dose of esomeprazole 40 mg QD; • have symptoms of heartburn (with or without regurgitation) which increase following a 2-week washout period compared with the prior 4 week course of high dose esomeprazole 40 mg QD.
The subjects entered into the study are NERD and mild (LA grade A, as defined by the Los Angeles Classification) erosive esophagitis (EE). […]

The test system of series [5] is gastric acid secretion. Conditions: rats, versus the PPI lansoprazole; cited from earlier work.
The test system of series [6] is erosive esophagitis (EE). Particulars: patients with erosive esophagitis; cited from earlier work.
For series [7], the system named is pH holding time. Conditions: cited from earlier work.
In series [8] the test system is non-erosive reflux disease (NERD). Conditions: NERD patients, cited from earlier work.
[9] abbreviates: TAK-438 20 mg once daily, after 2 weeks, subjects with PPI-resistant EE.
Setting [10] is: TAK-438 40 mg once daily, after 2 weeks, subjects with PPI-resistant EE.
[11] abbreviates: both treatment groups (20 mg and 40 mg), after 2 weeks.

Turning to `CNCc1cc(-c2ccccc2F)n(S(=O)(=O)c2cccnc2)c1.O=C(O)/C=C/C(=O)O` [TAK-438, 1-[5-(2-fluorophenyl)-1-(pyridin-3-ylsulfonyl)-1H-pyrrol-3-yl]-N-methylmethanamine], in series [1] (setting [9]), the “mean 24-hour esophageal pH 4 HTR” value is 98.41% and the “mean 24-hour gastric pH 4 HTR” value is recorded as 96.46%. Besides, in series [1] (TAK-438 20 mg or 40 mg, nighttime as well as daytime, subjects with PPI-resistant EE), the “effect on gastric acid secretion” value is reported as “suppressed gastric acid secretion”. In series [1] (setting [10]), the “mean 24-hour esophageal pH 4 HTR” value came to 99.86% and the “mean 24-hour gastric pH 4 HTR” value is 100.00%. Also, in series [1] (after 2 weeks, differences between groups not statistically significant), the “increases in gastric and esophageal pH 4 HTRs, 40 mg versus 20 mg group” value is reported as “greater in the TAK-438 40 mg group than in the TAK-438 20 mg group”. In series [1] (setting [11]), the “mean 24-hour esophageal pH 1, 2, 3, 6, and 7 HTRs, change from baseline” value is “remained almost unchanged”; the “mean 24-hour esophageal pH 5 HTR, change from baseline” value is reported as “slightly increased”; the “mean 24-hour gastric pH 2, 3, 5, 6, and 7 HTRs, change from baseline” value is “increased from baseline”. Further, in series [1] (both treatment groups (20 mg and 40 mg), after 2 weeks of TAK-438, baseline also 100.00%), the “mean 24-hour gastric pH 1 HTR” value was 100.00%. The “mean gastric pH, change from baseline” value in series [1] (both treatment groups, 12-hour and 24-hour periods) is “increased from baseline”. Besides, the “mean gastric pH 4 HTRs during daytime and nighttime” value in series [1] (both treatment groups, changes greater during nighttime than daytime) was “increased during both the daytime and nighttime with statistical significance”. The “mean esophageal pH, change from baseline” value in series [1] (both treatment groups, lesser extent than mean gastric pH) was “also increased”. The “significance of increase from baseline in 24-hour gastric pH 4 HTR” value in series [1] (both treatment groups, lower limits of 95% CI of mean changes greater than 0) is “statistically significant”. Also, the “significance of change from baseline in 24-hour esophageal pH 4 HTR” value in series [1] (either treatment group (20 mg, 40 mg)) is “not statistically significant”. Besides, the “EE healing rate after 8-week treatment” value in series [2] (TAK-438 20 mg group, 4 out of 9 subjects) is 44.4%. The “EE healing rate after 8-week treatment” value in series [2] (TAK-438 40 mg group, 5 out of 9 subjects) is 55.6%. In addition, the overall efficacy result in series [2] (subjects with PPI-resistant EE of LA Grades A to D, 20 mg or 40 mg) is reported as “effective”. Moreover, the safety and tolerability result in series [3] was “safe, and well tolerated”. Also, in series [4], the “heartburn and/or regurgitation symptoms” value is “can reduce heartburn and/or regurgitation symptoms throughout the whole day and night”; the “percentage of heartburn-free days and nights (24-hour periods)” value is “can increase the percentage of heartburn-free days and nights”. Besides, the “inhibitory action on gastric acid secretion compared with lansoprazole” value in series [5] is “more potent and longer-lasting”. Also, the “efficacy in treatment of EE and maintenance of EE healing” value in series [6] is “effective for the treatment of EE and maintenance of EE healing”. Besides, the “time to near maximal effect on pH holding time” value in series [7] (after dosing, maintained with chronic dosing) is at most 24 hours. In series [7] (after the first dose, single and multiple repeat-dosing studies), the onset of action entry is reported as “rapid onset of action after the first dose”.
For `Cc1cccc(C)c1CNc1cc(C(=O)NCCO)cn2c(C)c(C)nc12` [AZD0865], the “clinical benefit over esomeprazole in treatment of NERD symptoms” value in series [8] (4 weeks) was “did not provide clinical benefit over esomeprazole”. Moreover, in series [8], the duration of effect result is given as “prolonged, dose-dependent duration of effect” and the “inhibition of acid production” value is recorded as “rapid inhibition of acid production”.
